# Read-outs that look alike come from different tables or passages of the source.
# What was measured:
# [1] = water solubility of the sodium salt; assay type: physicochemical
# Swiss Albino mice [2] = experiment: Acute Intravenous Toxicity Studies in Mice; assay type: in vivo; settings: N-methylglucamine (meglumine) salt, i.v. lateral tail vein, 1 ml./min, 7 day observation, Litchfield and Wilcoxon
# Description: (§1) Toxicity evaluations by three different techniques were carried out on solutions of the N-methylglucamine salts of 3-acetamido-5-(4,4-bishydroxymethyl-2-oxazolinyl)-2,4,6-triiodobenzoic acid and 3-acetamido-5-(4-methyl-4-hydroxymethyl-2-oxazolinyl)-2,4,6-triiodobenzoicacid. The techniques utilized are outlined below.
# I. Acute Intravenous Toxicity Studies in Mice
# Swiss Albino mice (Charles River) were dosed in the lateral tail vein with solutions of the iodinated compounds containing 50.4% iodine in the case of 3-acetamido-5-(4,4-bishydroxymethyl-2-oxazolinyl)-2,4,6-triiodobenzoic acid and 28.2% iodine in the case of 3-acetamido-5-(4-methyl-4-hydroxymethyl-2-oxazolinyl)-2,4,6-triiodobenzoicacid, injected at the rate of 1 ml./min. […] The LD50 values were calculated by the method of Litchfield and Wilcoxon (J. of Pharmac. and Exptl. Therap. 96: 99-113, 1949).
# Swiss Albino mice [3] = experiment: Intracerebral Toxicity in Mice; assay type: in vivo; settings: N-methylglucamine (meglumine) salt, 7 day observation, Litchfield and Wilcoxon
# Description: as §1
# II. Intracerebral Toxicity in Mice
# Swiss Albino mice (Charles River) were used. Fixed volumes of solutions of various concentrations of the iodinated compounds were injected intracerebrally via a 27 gauge needle, (1/4 inch length) according to the method of Haley, et al. (Br. J. of Pharmac. 12:12-15, 1957). The animals were observed immediately after injections and daily throughout a 7 day observation period. The LD50 values were calculated by the method of Litchfield and Wilcoxon (J. of Pharmac. and Exptl. Therap. 96:99-113, (1949)).
# Sprague Dawley rats = experiment: Intracisternal Toxicity in Rats; assay type: in vivo; settings: N-methylglucamine (meglumine) salt, 2 day observation, Litchfield and Wilcoxon
# Description: as §1
# III. Intracisternal Toxicity in Rats
# Sprague Dawley (Carworth) rats were used. The method used was a variation of the procedure outlined by Melartin et al. (Invest. Rad. 5:13-21, 1970). After dosing, the animals were housed individually, and observed for immediate reactions and periodically for a 2 day observation period. The LD50 values were calculated according to the method of Litchfield and Wilcoxon, (J. of Pharmac. and Exptl. Therap. 96:[…], 1949).
# [4] = read-out: water solubility of the sodium salt
smiles,measurement,setting,value
"Nc1c(I)c(C(=O)O)c(I)c(C(=O)NC(CO)(CO)CO)c1I [Example 3, 5-Amino-N-[tris(hydroxymethyl)methyl]-2,4,6-triiodoisophthalamic Acid]",solubility,[1]; [4],~800 mg/mL
"CC(=O)Nc1c(I)c(C(=O)O)c(I)c(C2=NC(CO)(CO)CO2)c1I [Example 4, 3-Acetamido-5-(4,4-bis(hydroxymethyl)-2-oxazolinyl)-2,4,6-triiodobenzoic Acid]","LD50 of Meglumine Salt, I.V. (Mice)",Swiss Albino mice [2],"5,522 mg. contained iodine/kg. anima"
same,"LD50 of Meglumine Salt, Intracerebral (Mice)",Swiss Albino mice [3],485 mg. contained iodine/kg. anima
same,"LD50 of Meglumine Salt, Intracisternal (Rats)",Sprague Dawley rats,55 mg. contained iodine/kg. anima
same,solubility,[1]; [4],958 mg/mL
"CC(CO)(CO)NC(=O)c1c(I)c(N)c(I)c(C(=O)O)c1I [Example 6, 5-Amino-N-[2-(1,3-dihydroxy-2-methyl)propyl]-2,4,6-triiodoisophthalamic Acid]",solubility,[1]; [4],~830 mg/mL
"CC(=O)Nc1c(I)c(C(=O)O)c(I)c(C2=NC(C)(CO)CO2)c1I (stereo not shown) [Example 8, 3-Acetamido-5-(4-methyl-4-hydroxymethyl-2-oxazolinyl)-2,4,6-triiodobenzoic Acid]","LD50 of Meglumine Salt, I.V. (Mice)",Swiss Albino mice [2],"5,500 mg. contained iodine/kg. anima"
same,"LD50 of Meglumine Salt, Intracerebral (Mice)",Swiss Albino mice [3],280 mg. contained iodine/kg. anima
same,"LD50 of Meglumine Salt, Intracisternal (Rats)",Sprague Dawley rats,28 mg. contained iodine/kg. anima
same,solubility,"[1]; w/v not given, read-out: solubility of the sodium salt",738 mg/mL

# From patent US4066743A, “X-ray contrast agents” (Mallinckrodt, Inc., priority 1976, dated 1978)
